Experimental data taken from PubChem BioAssay AID328 (DTP/NCI, 2004).
Several values for one entry are separate records, joined by “and”; a condition that tells them apart may be missing. Equal entries are not always repeated. Toxic doses and inconclusive results are not listed.

System: BDF1 mice, P388 leukemia ip, median survival T/C
Experiment: NCI In Vivo Anticancer Drug Screen. Data for tumor model P388 Leukemia (intraperitoneal) in B6D2F1 (BDF1) mice
Details: endpoint: median survival time, higher = longer survival
Outline: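 In tumour-bearing mice, survival after compound treatment is set against the vehicle group and given as a quotient.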

[1] = dose: 50.0 mg/kg/injection, schedule: Q01DX009 (ip), vehicle: saline with Tween-80
[2] = dose: 100.0 mg/kg/injection, schedule: Q01DX009 (ip), vehicle: saline with Tween-80
[3] = dose: 200.0 mg/kg/injection, schedule: Q01DX009 (ip), vehicle: saline with Tween-80
[4] = dose: 12.5 mg/kg/injection, schedule: Q01DX009 (ip), vehicle: saline with Tween-80
[5] = dose: 25.0 mg/kg/injection, schedule: Q01DX009 (ip), vehicle: saline with Tween-80
[6] = dose: 100.0 mg/kg/injection, schedule: Q01DX009 (ip), vehicle: Klucel (hydroxypropylcellulose) (HPC)
[7] = dose: 100.0 mg/kg/injection, schedule: Q04DX003 (ip), vehicle: Klucel (hydroxypropylcellulose) (HPC)
[8] = dose: 200.0 mg/kg/injection, schedule: Q01DX009 (ip), vehicle: Klucel (hydroxypropylcellulose) (HPC)
[9] = dose: 200.0 mg/kg/injection, schedule: Q04DX003 (ip), vehicle: Klucel (hydroxypropylcellulose) (HPC)
[10] = dose: 400.0 mg/kg/injection, schedule: Q01DX009 (ip), vehicle: Klucel (hydroxypropylcellulose) (HPC)
[11] = dose: 400.0 mg/kg/injection, schedule: Q04DX003 (ip), vehicle: Klucel (hydroxypropylcellulose) (HPC)
[12] = dose: 100.0 mg/kg/injection, schedule: Q01DX009 (ip), vehicle: saline
[13] = dose: 100.0 mg/kg/injection, schedule: Q04DX003 (ip), vehicle: saline
[14] = dose: 200.0 mg/kg/injection, schedule: Q01DX009 (ip), vehicle: saline
[15] = dose: 200.0 mg/kg/injection, schedule: Q04DX003 (ip), vehicle: saline
[16] = dose: 400.0 mg/kg/injection, schedule: Q04DX003 (ip), vehicle: saline
[17] = dose: 50.0 mg/kg/injection, schedule: Q04DX003 (ip), vehicle: saline with Tween-80
[18] = dose: 100.0 mg/kg/injection, schedule: Q04DX003 (ip), vehicle: saline with Tween-80
[19] = dose: 50.0 mg/kg/injection, schedule: Q01DX009 (ip), vehicle: Klucel (hydroxypropylcellulose) (HPC)
[20] = dose: 100.0 mg/kg/injection, schedule: Q01DX001 (ip), vehicle: saline with Tween-80
[21] = dose: 200.0 mg/kg/injection, schedule: Q01DX001 (ip), vehicle: saline with Tween-80
[22] = dose: 200.0 mg/kg/injection, schedule: Q04DX003 (ip), vehicle: saline with Tween-80
[23] = dose: 400.0 mg/kg/injection, schedule: Q04DX003 (ip), vehicle: saline with Tween-80

## CC(C)(C)c1ccc(/C(N)=N/O)cc1
dose: 50.0 mg/kg/injection, schedule: Q01DX005 (ip), vehicle: saline with Tween-80
  T/C: 92 % of control
dose: 100.0 mg/kg/injection, schedule: Q01DX005 (ip), vehicle: saline with Tween-80
  T/C: 101 % of control

## NCc1c(Cl)c(Cl)c(Cl)c(CN)c1Cl
[1]
  T/C: 100 % of control
[2]
  T/C: 90 % of control
[3]
  T/C: 86 % of control

## Fc1ccccc1C1=NCC(=S)N(CC(F)(F)F)c2ccc(Cl)cc21
[1]
  T/C: 100 % of control
[2]
  T/C: 96 % of control

## COC1NC(=O)NC(=O)C1=[N+]=[N-] (configuration not stated)
dose: 3.3 mg/kg/injection, schedule: Q01DX009 (ip), vehicle: saline with Tween-80
  T/C: 170 % of control
dose: 5.0 mg/kg/injection, schedule: Q01DX009 (ip), vehicle: saline with Tween-80
  T/C: 175 % of control

## OCCN1CCN(CCCN2c3ccccc3Sc3ccc(C(F)(F)F)cc32)CC1
dose: 0.31 mg/kg/injection, schedule: Q01DX009 (ip), vehicle: saline
  T/C: 86 % of control
dose: 0.62 mg/kg/injection, schedule: Q01DX009 (ip), vehicle: saline
  T/C: 90 % of control
dose: 0.82 mg/kg/injection, schedule: Q01DX009 (ip), vehicle: saline
  T/C: 86 % of control
dose: 1.25 mg/kg/injection, schedule: Q01DX009 (ip), vehicle: saline
  T/C: 113 % of control
dose: 12.5 mg/kg/injection, schedule: Q04DX003 (ip), vehicle: saline
  T/C: 105 % of control

## CC1=CC(=NN=c2cc(C)n([O-])c(C)c2)C=C(C)[N+]1=O
dose: 12.5 mg/kg/injection, schedule: Q01DX010 (ip), vehicle: saline
  T/C: 91 % of control and 104 % of control and 114 % of control

## CCOC(=O)C(C(C)=O)C(=O)OCC
dose: 25.0 mg/kg/injection, schedule: Q04DX003 (ip), vehicle: other
  T/C: 90 % of control
dose: 50.0 mg/kg/injection, schedule: Q01DX009 (ip), vehicle: other
  T/C: 113 % of control
dose: 50.0 mg/kg/injection, schedule: Q04DX003 (ip), vehicle: other
  T/C: 99 % of control
dose: 100.0 mg/kg/injection, schedule: Q01DX009 (ip), vehicle: other
  T/C: 100 % of control
dose: 100.0 mg/kg/injection, schedule: Q04DX003 (ip), vehicle: other
  T/C: 99 % of control
dose: 200.0 mg/kg/injection, schedule: Q04DX003 (ip), vehicle: other
  T/C: 92 % of control
dose: 400.0 mg/kg/injection, schedule: Q01DX009 (ip), vehicle: other
  T/C: 88 % of control
dose: 400.0 mg/kg/injection, schedule: Q04DX003 (ip), vehicle: other
  T/C: 110 % of control

## COC1C(O)CC(=O)OC(C)C/C=C/C=C/C(OC2CCC(N(C)C)C(C)O2)C(C)CC(CC=O)C1OC1OC(C)C(OC2CC(C)(O)C(O)C(C)O2)C(N(C)C)C1O (configuration not stated)
dose: 6.25 mg/kg/injection, schedule: Q01DX009 (ip), vehicle: saline with Tween-80
  T/C: 102 % of control
[4]
  T/C: 94 % of control
[5]
  T/C: 100 % of control

## Nc1ccc(Cl)cc1C(=O)c1ccc[nH]1
[6]
  T/C: 100 % of control
[7]
  T/C: 100 % of control
[8]
  T/C: 95 % of control
[9]
  T/C: 100 % of control
[10]
  T/C: 100 % of control
[11]
  T/C: 95 % of control

## O=C(Nc1ccc([N+](=O)[O-])cc1)Nc1ccc([N+](=O)[O-])cc1 (tested in a mixture with another compound)
[12]
  T/C: 109 % of control
[13]
  T/C: 112 % of control and 104 % of control
[14]
  T/C: 122 % of control
[15]
  T/C: 100 % of control and 91 % of control
dose: 400.0 mg/kg/injection, schedule: Q01DX009 (ip), vehicle: saline
  T/C: 118 % of control
[16]
  T/C: 112 % of control and 100 % of control

## O=C(O)c1ccc(Cl)cc1Nc1ccc(Cl)cc1
dose: 25.0 mg/kg/injection, schedule: Q04DX003 (ip), vehicle: saline with Tween-80
  T/C: 120 % of control
[17]
  T/C: 100 % of control
[18]
  T/C: 100 % of control

## CC1=NN(c2ccccc2)C(=O)/C1=C\c1ccc(N(CCC#N)CCC#N)cc1
[19]
  T/C: 87 % of control
[6]
  T/C: 93 % of control
[8]
  T/C: 87 % of control
[10]
  T/C: 91 % of control

## COC1C(O)C(OC2CCC3(C)C(CCC4C3CCC3(C)C(C5=CC(=O)OC5)CCC43O)C2)OC(C)C1OC(C)=O (configuration not stated)
dose: 9.6 mg/kg/injection, schedule: Q01DX009 (ip), vehicle: saline with Tween-80
  T/C: 115 % of control
dose: 22.0 mg/kg/injection, schedule: Q01DX009 (ip), vehicle: saline with Tween-80
  T/C: 108 % of control
dose: 33.0 mg/kg/injection, schedule: Q01DX009 (ip), vehicle: saline with Tween-80
  T/C: 100 % of control

## CC(=O)OC1(C)CC(C)(C)N=[N+]1[O-] (configuration not stated)
dose: 12.5 mg/kg/injection, schedule: Q01DX005 (ip), vehicle: other
  T/C: 103 % of control
dose: 25.0 mg/kg/injection, schedule: Q01DX005 (ip), vehicle: other
  T/C: 103 % of control
dose: 50.0 mg/kg/injection, schedule: Q01DX005 (ip), vehicle: other
  T/C: 121 % of control
dose: 100.0 mg/kg/injection, schedule: Q01DX005 (ip), vehicle: other
  T/C: 103 % of control
dose: 200.0 mg/kg/injection, schedule: Q01DX005 (ip), vehicle: other
  T/C: 109 % of control

## CC(=O)O[C@@]1(C)[C@@H](C)C(=O)O[C@@H]2CCN3CC=C(COC(=O)[C@]1(C)O)[C@H]23
dose: 25.0 mg/kg/injection, schedule: Q01DX010 (ip), vehicle: carboxymethylcellulose (CMC)
  T/C: 110 % of control
dose: 50.0 mg/kg/injection, schedule: Q01DX010 (ip), vehicle: carboxymethylcellulose (CMC)
  T/C: 95 % of control
dose: 100.0 mg/kg/injection, schedule: Q01DX010 (ip), vehicle: carboxymethylcellulose (CMC)
  T/C: 100 % of control

## Cc1ccc(N2CCN(C3=CCC(C(C)C)CC3)CC2)cc1Cl (configuration not stated)
[20]
  T/C: 105 % of control
[21]
  T/C: 105 % of control

## O=C(Nc1ccc(Cl)c(Cl)c1)Nc1cc(Cl)ccc1Sc1ccc(Cl)cc1S(=O)(=O)O
[5]
  T/C: 109 % of control
[1]
  T/C: 95 % of control
[2]
  T/C: 90 % of control

## C#CC(C)OCC(C)OC (configuration not stated)
dose: 12.5 mg/kg/injection, schedule: Q04DX003 (ip), vehicle: saline with Tween-80
  T/C: 118 % of control
[17]
  T/C: 118 % of control

## COc1ccc2ccccc2c1/C=N/N1CCCCC1
[18]
  T/C: 110 % of control
[22]
  T/C: 95 % of control
[23]
  T/C: 115 % of control

## CN(CC[N+]1(C)CCCC1)P(=O)(N1CCCC1)N1CCCC1
dose: 50.0 mg/kg/injection, schedule: Q01DX009 (ip), vehicle: saline
  T/C: 106 % of control
[12]
  T/C: 101 % of control
[14]
  T/C: 109 % of control

## ClC1(Cl)OC(Cl)(Cl)C(Cl)(Cl)OC1(Cl)Cl
[19]
  T/C: 95 % of control
[6]
  T/C: 95 % of control
[8]
  T/C: 109 % of control

## O=C(NS(=O)(=O)c1ccc(Cl)cc1)c1ccccc1
[4]
  T/C: 99 % of control
[5]
  T/C: 100 % of control and 109 % of control
[1]
  T/C: 103 % of control and 120 % of control
[2]
  T/C: 100 % of control
[3]
  T/C: 90 % of control

## COc1ccccc1NC(=O)c1ccc(Cl)cc1Cl
dose: 25.0 mg/kg/injection, schedule: Q01DX009 (ip), vehicle: Klucel (hydroxypropylcellulose) (HPC)
  T/C: 116 % of control
[19]
  T/C: 122 % of control
[6]
  T/C: 122 % of control
[7]
  T/C: 100 % of control
[8]
  T/C: 104 % of control
[9]
  T/C: 95 % of control
[10]
  T/C: 104 % of control
[11]
  T/C: 104 % of control

## O=C(/C=C/c1cccc2ccccc12)c1ccc(Cl)cc1
[6]
  T/C: 109 % of control
[7]
  T/C: 104 % of control
[8]
  T/C: 95 % of control
[9]
  T/C: 104 % of control
[11]
  T/C: 95 % of control

## CC12CC3(O)CCC1CCC2C(=O)C3 (configuration not stated)
[13]
  T/C: 118 % of control
[15]
  T/C: 109 % of control
[16]
  T/C: 122 % of control

## CC1(C)CCCC(C(Cc2ccc3ccccc3n2)c2ccccc2)C1=O (configuration not stated)
[20]
  T/C: 98 % of control
[21]
  T/C: 96 % of control
dose: 400.0 mg/kg/injection, schedule: Q01DX001 (ip), vehicle: saline with Tween-80
  T/C: 88 % of control

## CC1COCC(C)N1 (configuration not stated)
[13]
  T/C: 106 % of control
[15]
  T/C: 111 % of control
[16]
  T/C: 106 % of control

## O=[N+]([O-])c1ccc(-c2nc3ncccn3n2)cc1
[18]
  T/C: 90 % of control
[22]
  T/C: 100 % of control
[23]
  T/C: 100 % of control
